Results taken from patent publication US20240327364A1, “THERAPEUTIC TARGETING OF GPR68 TO INDUCE FERROPTOSIS” (University Of Maryland, Baltimore, priority 2023, published 2024).

What was measured:
[1] = target: T1, PIK3CA(I800L) (Homo sapiens, UniProt P42336, I800L); experiment: KinomeScan; assay type: binding; conditions: read-out: % Control
T1 construct: purchased DiscoveRx (Fremont, CA)

[2] = target: T2, CCR1 (Homo sapiens, UniProt P32246); experiment: GPCR Profiler; assay type: cell-based
T2 construct: host or cells: Chem-1 cells with Gα15

[3] = target: T3, MRCKB (Homo sapiens, UniProt Q9Y5S2); experiment: KinomeScan; assay type: binding; conditions: read-out: % Control
T3 construct: purchased DiscoveRx

[4] = target: T4, PIK3CA(Q546K) (Homo sapiens, UniProt P42336, Q546K); experiment: KinomeScan; assay type: binding; conditions: read-out: % Control
T4 construct: purchased DiscoveRx (Fremont, CA)

[5] = target: T5, FGFR3 (Homo sapiens, UniProt P22607); experiment: KinomeScan; assay type: binding; conditions: read-out: % Control
T5 construct: purchased DiscoveRx (Fremont, CA)

[6] = target: T6, HIPK1 (Homo sapiens, UniProt Q86Z02); experiment: KinomeScan; assay type: binding; conditions: read-out: % Control
T6 construct: purchased DiscoveRx (Fremont, CA)

[7] = target: CLK1 (Homo sapiens, UniProt P49759); experiment: KinomeScan; assay type: binding; conditions: read-out: % Control
[8] = target: T7, PDGFRA (Homo sapiens, UniProt P16234); experiment: KinomeScan; assay type: binding; conditions: read-out: % Control
T7 construct: purchased DiscoveRx (Fremont, CA)

[9] = target: T8, DCAMKL1 (Homo sapiens, UniProt O15075); experiment: KinomeScan; assay type: binding; conditions: read-out: % Control
T8 construct: purchased DiscoveRx (Fremont, CA), KinomeScan service

[10] = target: T9, ADRB1 (Homo sapiens, UniProt P08588); experiment: GPCR Profiler; assay type: cell-based
T9 construct: host or cells: Chem-1 cells with promiscuous Gα15

[11] = target: T10, LRRK2 (Homo sapiens, UniProt Q5S007); experiment: KinomeScan; assay type: binding; conditions: read-out: % Control
T10 construct: purchased DiscoveRx

[12] = target: CSK (Homo sapiens, UniProt P41240); experiment: KinomeScan; assay type: binding; conditions: read-out: % Control
[13] = target: T11, CCR9 (Homo sapiens, UniProt P51686); experiment: GPCR Profiler; assay type: cell-based
T11 construct: host or cells: Chem-1 cells with Gα15

[14] = target: T12, PRKCH (Homo sapiens, UniProt P24723); experiment: KinomeScan; assay type: binding; conditions: read-out: % Control
T12 construct: purchased DiscoveRx (Fremont, CA)

[15] = target: T13, IRAK4 (Homo sapiens, UniProt Q9NWZ3); experiment: KinomeScan; assay type: binding; conditions: read-out: % Control
T13 construct: purchased DiscoveRx (Fremont, CA)

[16] = target: T14, GCGR (Homo sapiens, UniProt P47871); experiment: GPCR Profiler; assay type: cell-based
T14 construct: host or cells: Chem-1 cells expressing Gα15

[17] = target: T15, PFTK1 (Homo sapiens, UniProt O94921); experiment: KinomeScan; assay type: binding; conditions: read-out: % Control
T15 construct: purchased DiscoveRx (Fremont, CA)

[18] = target: T16, STK33 (Homo sapiens, UniProt Q9BYT3); experiment: KinomeScan; assay type: binding; conditions: read-out: % Control
T16 construct: purchased DiscoveRx (Fremont, CA)

[19] = target: T17, MEK5 (Homo sapiens, UniProt Q13163); experiment: KinomeScan; assay type: binding; conditions: read-out: % Control
T17 construct: purchased DiscoveRx (Fremont, CA)

[20] = target: T18, SRPK2 (Homo sapiens, UniProt P78362); experiment: KinomeScan; assay type: binding; conditions: read-out: % Control
T18 construct: purchased DiscoveRx (Fremont, CA)

[21] = target: T19, BB1 (Homo sapiens, UniProt P28336); experiment: GPCR Profiler; assay type: cell-based
T19 construct: host or cells: Chem-1 cells with promiscuous Gα15

[22] = target: T20, TLK2 (Homo sapiens, UniProt Q86UE8); experiment: KinomeScan; assay type: binding; conditions: read-out: % Control
T20 construct: purchased DiscoveRx (Fremont, CA)

[23] = target: T21, CCR5 (Macaca mulatta, UniProt P61813); experiment: GPCR Profiler; assay type: cell-based
T21 construct: host or cells: Chem-1 cells with Gα15

[24] = target: T22, MST1R (Homo sapiens, UniProt Q04912); experiment: KinomeScan; assay type: binding; conditions: read-out: % Control
T22 construct: purchased DiscoveRx

[25] = target: T23, PDGFRB (Homo sapiens, UniProt P09619); experiment: KinomeScan; assay type: binding; conditions: read-out: % Control
T23 construct: purchased DiscoveRx (Fremont, CA)

[26] = system: U87 spheroids; experiment: GBM spheroid assay; assay type: cell-based, human
Method: One thousand cells per well were plated in an ultra-low attachment, round-bottomed, 96-well plate, and spheroids were allowed to form for 3 days. Wells were then exposed to concentrations of vehicle, OGM2 or TMZ or a combination for 3 days. Spheroids were imaged in brightfield at 10× using z-stacks that were collapsed into z-projections in the Gen5 software using the LionheartFx (BioTek™). Automated measurements of the spheroid area were obtained using Gen5 software.
Tumor spheroid cultures are a more physiological model of tumor growth than typical 2D cell culture. Temozolomide sensitive U87 (FIG. 20A) and Temozolomide insensitive U138 (FIG. 20B) glioblastoma cell lines were plated in low attachment round bottom 96-well plates and allowed to form tumor spheroids for 3 days (T0). At T0, spheroids were imaged using Lionheart™ (HCS) High-Content Imaging Systems (Biotek™) and then were exposed to increasing doses of either Temozolomide or OGM2. After 5 days of treatment the spheroids were imaged again (T5). The size (area) of the spheroids after 5 days of treatment was quantified, and the average size of the spheroids at TO is depicted in red.
A GPR68-positive allosteric modulator, Ogerin, was tested. U87glioblastoma cells were plated in low attachment round bottom 96-well plates and allowed to form tumor spheroids for 3 days (TO). These spheroids were treated with Vehicle (DMSO), 10 μM/20 μM Ogerin or 10 μM/20 μM Ogremorphin-2 (OGM2). The spheroids were placed in the Lionheart™ HCS equipped with environmental control (5% CO2 at 37° C.) and imaged every 12 hours.
Spheroids were formed over 3 days using low attachment 96-well round bottom plates and then treated with DMSO or OGM2 in either pH 8 buffered media or pH 6.2 buffered media and grown for 3 days. The size (area) of spheroids was measured in relative area units. […] This increase in growth was abrogated by OGM2.

T2 sequence (P32246 whole entry, species assumed): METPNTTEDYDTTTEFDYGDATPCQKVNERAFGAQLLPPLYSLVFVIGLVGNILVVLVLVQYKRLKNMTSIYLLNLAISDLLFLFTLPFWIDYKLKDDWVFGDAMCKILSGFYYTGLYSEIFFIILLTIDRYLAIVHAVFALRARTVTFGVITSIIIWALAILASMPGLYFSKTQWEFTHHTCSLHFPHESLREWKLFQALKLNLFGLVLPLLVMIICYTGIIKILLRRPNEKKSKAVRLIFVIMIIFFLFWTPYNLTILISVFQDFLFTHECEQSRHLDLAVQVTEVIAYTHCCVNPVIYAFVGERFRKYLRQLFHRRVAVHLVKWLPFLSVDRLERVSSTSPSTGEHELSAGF
T11 sequence (P51686 whole entry, species assumed): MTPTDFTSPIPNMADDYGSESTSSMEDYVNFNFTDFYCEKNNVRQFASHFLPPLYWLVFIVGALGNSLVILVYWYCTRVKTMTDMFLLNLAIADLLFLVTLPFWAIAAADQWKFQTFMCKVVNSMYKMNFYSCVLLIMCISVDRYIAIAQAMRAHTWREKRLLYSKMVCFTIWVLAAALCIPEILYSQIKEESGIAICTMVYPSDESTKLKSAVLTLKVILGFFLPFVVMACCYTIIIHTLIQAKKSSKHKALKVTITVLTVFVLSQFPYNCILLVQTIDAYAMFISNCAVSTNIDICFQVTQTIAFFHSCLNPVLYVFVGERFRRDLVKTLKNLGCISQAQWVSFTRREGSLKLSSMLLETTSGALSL
T9 sequence (P08588 whole entry, species assumed): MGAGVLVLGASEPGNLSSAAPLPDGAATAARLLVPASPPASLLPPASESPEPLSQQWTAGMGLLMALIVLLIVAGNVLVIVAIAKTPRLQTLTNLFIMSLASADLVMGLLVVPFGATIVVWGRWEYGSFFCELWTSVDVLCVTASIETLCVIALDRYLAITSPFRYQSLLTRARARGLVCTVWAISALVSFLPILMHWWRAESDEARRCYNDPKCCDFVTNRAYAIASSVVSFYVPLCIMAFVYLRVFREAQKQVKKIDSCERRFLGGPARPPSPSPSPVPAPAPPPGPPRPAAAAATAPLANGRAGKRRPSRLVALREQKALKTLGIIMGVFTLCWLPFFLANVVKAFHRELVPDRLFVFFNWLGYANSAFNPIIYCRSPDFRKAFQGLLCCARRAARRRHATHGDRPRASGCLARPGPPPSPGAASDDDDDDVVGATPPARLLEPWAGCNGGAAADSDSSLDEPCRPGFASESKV
T14 sequence (P47871 26-477): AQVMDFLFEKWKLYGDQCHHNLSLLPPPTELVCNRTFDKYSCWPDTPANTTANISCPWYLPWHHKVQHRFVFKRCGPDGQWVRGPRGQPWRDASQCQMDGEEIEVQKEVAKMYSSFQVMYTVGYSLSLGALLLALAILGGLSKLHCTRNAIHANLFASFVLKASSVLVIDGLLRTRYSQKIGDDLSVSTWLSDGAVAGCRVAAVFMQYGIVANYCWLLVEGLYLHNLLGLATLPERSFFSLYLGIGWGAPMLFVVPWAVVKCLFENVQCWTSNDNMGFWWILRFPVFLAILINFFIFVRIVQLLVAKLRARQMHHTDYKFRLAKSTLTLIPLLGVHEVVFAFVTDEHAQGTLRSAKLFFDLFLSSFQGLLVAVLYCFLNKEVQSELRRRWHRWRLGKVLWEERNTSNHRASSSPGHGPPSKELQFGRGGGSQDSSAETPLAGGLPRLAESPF
T19 sequence (P28336 whole entry): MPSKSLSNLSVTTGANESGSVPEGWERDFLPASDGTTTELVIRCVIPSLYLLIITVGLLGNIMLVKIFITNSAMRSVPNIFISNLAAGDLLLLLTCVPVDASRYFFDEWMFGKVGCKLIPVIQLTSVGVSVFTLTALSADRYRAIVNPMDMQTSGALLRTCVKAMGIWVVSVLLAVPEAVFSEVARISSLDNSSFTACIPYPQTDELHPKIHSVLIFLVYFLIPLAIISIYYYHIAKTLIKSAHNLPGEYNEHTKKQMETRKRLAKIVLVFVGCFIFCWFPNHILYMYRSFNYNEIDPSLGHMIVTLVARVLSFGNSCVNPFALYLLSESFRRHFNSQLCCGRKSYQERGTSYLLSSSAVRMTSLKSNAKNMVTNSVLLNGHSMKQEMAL
T17 sequence (Q13163 whole entry): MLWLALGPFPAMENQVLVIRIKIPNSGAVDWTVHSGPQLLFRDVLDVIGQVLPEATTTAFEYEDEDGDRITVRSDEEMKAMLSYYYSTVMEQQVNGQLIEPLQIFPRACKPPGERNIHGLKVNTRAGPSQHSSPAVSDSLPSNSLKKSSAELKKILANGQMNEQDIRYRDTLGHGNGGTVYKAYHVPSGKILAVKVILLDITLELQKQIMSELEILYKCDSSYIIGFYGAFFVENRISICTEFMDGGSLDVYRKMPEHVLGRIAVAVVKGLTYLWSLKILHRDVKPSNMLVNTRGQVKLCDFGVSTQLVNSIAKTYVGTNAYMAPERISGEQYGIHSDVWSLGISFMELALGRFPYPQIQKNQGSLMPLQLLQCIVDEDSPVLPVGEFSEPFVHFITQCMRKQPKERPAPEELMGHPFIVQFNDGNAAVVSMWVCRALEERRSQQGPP
T23 sequence (P09619 33-1106): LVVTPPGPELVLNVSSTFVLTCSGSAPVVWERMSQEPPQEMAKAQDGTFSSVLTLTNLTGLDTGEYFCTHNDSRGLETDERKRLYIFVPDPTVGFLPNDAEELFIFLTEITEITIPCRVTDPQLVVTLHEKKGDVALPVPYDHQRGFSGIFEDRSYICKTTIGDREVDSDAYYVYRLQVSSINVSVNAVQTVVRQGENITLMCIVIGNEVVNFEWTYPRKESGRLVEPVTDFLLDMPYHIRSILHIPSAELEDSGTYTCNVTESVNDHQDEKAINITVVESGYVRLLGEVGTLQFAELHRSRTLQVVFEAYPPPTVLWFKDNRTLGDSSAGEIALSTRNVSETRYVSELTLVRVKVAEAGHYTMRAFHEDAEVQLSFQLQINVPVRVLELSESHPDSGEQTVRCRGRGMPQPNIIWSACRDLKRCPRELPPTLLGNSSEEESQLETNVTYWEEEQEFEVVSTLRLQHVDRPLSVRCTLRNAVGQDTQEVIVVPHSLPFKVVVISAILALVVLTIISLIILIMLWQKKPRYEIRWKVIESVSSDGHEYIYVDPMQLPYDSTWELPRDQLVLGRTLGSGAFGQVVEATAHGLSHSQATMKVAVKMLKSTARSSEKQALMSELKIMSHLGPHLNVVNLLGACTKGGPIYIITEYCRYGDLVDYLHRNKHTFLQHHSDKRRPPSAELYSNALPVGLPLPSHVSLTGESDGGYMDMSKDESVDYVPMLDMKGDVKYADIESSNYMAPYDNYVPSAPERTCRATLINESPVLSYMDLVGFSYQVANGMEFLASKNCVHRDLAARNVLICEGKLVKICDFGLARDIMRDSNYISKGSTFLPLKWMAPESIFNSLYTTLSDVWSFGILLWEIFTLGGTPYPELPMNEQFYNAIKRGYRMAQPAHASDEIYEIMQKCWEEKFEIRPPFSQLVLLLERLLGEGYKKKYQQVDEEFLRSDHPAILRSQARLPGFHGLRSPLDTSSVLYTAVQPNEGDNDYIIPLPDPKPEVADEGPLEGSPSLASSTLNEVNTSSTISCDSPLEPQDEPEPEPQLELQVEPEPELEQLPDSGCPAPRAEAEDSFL
Sequence of CSK (P41240 whole entry): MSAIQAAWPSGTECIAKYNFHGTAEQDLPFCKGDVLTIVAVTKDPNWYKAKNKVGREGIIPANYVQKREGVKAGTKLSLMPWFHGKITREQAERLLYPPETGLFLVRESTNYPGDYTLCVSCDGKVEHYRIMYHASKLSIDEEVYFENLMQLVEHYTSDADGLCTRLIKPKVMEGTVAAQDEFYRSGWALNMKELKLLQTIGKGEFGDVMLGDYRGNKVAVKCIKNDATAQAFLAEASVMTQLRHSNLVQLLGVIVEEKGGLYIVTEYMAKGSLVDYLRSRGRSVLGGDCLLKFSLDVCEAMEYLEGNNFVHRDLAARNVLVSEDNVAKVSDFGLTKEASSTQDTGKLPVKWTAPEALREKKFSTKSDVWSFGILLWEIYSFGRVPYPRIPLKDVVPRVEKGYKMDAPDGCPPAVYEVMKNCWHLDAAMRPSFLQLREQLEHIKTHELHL
T15 sequence (O94921 whole entry): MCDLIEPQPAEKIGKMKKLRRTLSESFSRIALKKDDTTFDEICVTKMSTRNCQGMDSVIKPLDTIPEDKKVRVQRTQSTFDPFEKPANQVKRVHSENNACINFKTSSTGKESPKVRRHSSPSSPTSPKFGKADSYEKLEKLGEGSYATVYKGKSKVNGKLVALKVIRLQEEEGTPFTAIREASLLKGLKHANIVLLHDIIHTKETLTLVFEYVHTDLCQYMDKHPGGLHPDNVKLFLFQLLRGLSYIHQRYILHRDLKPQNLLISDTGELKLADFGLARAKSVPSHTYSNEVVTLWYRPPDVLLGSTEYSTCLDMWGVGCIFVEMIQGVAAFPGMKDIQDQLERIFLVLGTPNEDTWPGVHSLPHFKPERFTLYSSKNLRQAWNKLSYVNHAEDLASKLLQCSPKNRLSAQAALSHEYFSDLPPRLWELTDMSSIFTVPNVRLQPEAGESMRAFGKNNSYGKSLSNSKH

CCc1ccc2c(c1)C1(NN=C(c3cccc4ccccc34)S1)C(=O)N2 (stereo not shown) [OGM1, 5-ethyl-5′-naphthalen-1-ylspiro[1H-indole-3,2′-3H-1,3,4-thiadiazole]-2-one]
remaining binding at 10 µM [1]: 100%
Antagonism ([2]; 10 uM): −0.6
Agonism ([2]; 12.5 uM): −0.3
remaining binding at 10 µM [3]: 100%
remaining binding at 10 µM [4]: 95%
remaining binding at 10 µM [5]: 100%
remaining binding at 10 µM [6]: 99%
remaining binding at 10 µM [7]: 100%
remaining binding at 10 µM [8]: 100%
remaining binding at 10 µM [9]: 72%
Antagonism ([10]; 10 uM): −9.6
Agonism ([10]; 12.5 uM): −1.3
remaining binding at 10 µM [11]: 100%
remaining binding at 10 µM [12]: 83%
Antagonism ([13]; 10 uM): 0.6
Agonism ([13]; 12.5 uM): 0.4
remaining binding at 10 µM [14]: 100%
remaining binding at 10 µM [15]: 88%
Antagonism ([16]; 10 uM): 6.1
Agonism ([16]; 12.5 uM): −0.1
remaining binding at 10 µM [17]: 92%
remaining binding at 10 µM [18]: 91%
remaining binding at 10 µM [19]: 92%
remaining binding at 10 µM [20]: 100%
Antagonism ([21]; 10 uM): 3.5
Agonism ([21]; 12.5 uM): −0.2
remaining binding at 10 µM [22]: 71%
Antagonism ([23]; 10 uM): 15.8
Agonism ([23]; 12.5 uM): 2.5
remaining binding at 10 µM [24]: 86%
remaining binding at 10 µM [25]: 72%

CCc1ccc2c(c1)C1(NN=C(c3ccccc3)S1)C(=O)N2 (stereo not shown) [OGM2]
spheroid growth rate [26]: impaired spheroid growth rate
spheroid growth, comparison with TMZ [26]: more potent inhibitor of U87 spheroid growth than TMZ
increase in spheroid growth at pH 6.2 versus pH 8 ([26]; 3 days): abrogated
